Source: BindingDB's records for doi:10.1021/acs.jmedchem.0c00830 (University of East Anglia, 2020)

Target: Histone deacetylase 3/Nuclear receptor corepressor 2 (HDAC3/NCoR2) (Homo sapiens, UniProt O15379+Q9Y618)
Test: Inhibition of human C-terminal His-tagged HDAC3 (1 to 428 residues)/human N-terminal GST-tagged NcoR2 (395 to 489 residues) expressed in sf9 cells using p53 (379 to 382 residues) (Arg-His-Lys(Ac)-Lys(Ac)) as substrate by fluorimetric assay

Sequence of Histone deacetylase 3/Nuclear receptor corepressor 2 (HDAC3/NCoR2) (O15379 whole entry, the tested form may be a part): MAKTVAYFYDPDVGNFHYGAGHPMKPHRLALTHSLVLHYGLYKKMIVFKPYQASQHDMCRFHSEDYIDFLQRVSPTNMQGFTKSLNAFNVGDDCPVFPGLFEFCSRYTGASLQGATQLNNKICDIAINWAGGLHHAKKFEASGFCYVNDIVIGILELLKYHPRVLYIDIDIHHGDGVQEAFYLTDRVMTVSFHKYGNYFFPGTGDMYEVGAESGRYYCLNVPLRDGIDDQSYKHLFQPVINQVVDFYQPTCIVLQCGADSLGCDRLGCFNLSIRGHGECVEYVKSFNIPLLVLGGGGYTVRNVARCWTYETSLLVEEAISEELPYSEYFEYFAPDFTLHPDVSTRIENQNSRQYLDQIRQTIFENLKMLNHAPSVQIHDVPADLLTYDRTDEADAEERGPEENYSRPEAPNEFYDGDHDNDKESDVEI
Sequence of Histone deacetylase 3/Nuclear receptor corepressor 2 (HDAC3/NCoR2) (Q9Y618 whole entry, the tested form may be a part): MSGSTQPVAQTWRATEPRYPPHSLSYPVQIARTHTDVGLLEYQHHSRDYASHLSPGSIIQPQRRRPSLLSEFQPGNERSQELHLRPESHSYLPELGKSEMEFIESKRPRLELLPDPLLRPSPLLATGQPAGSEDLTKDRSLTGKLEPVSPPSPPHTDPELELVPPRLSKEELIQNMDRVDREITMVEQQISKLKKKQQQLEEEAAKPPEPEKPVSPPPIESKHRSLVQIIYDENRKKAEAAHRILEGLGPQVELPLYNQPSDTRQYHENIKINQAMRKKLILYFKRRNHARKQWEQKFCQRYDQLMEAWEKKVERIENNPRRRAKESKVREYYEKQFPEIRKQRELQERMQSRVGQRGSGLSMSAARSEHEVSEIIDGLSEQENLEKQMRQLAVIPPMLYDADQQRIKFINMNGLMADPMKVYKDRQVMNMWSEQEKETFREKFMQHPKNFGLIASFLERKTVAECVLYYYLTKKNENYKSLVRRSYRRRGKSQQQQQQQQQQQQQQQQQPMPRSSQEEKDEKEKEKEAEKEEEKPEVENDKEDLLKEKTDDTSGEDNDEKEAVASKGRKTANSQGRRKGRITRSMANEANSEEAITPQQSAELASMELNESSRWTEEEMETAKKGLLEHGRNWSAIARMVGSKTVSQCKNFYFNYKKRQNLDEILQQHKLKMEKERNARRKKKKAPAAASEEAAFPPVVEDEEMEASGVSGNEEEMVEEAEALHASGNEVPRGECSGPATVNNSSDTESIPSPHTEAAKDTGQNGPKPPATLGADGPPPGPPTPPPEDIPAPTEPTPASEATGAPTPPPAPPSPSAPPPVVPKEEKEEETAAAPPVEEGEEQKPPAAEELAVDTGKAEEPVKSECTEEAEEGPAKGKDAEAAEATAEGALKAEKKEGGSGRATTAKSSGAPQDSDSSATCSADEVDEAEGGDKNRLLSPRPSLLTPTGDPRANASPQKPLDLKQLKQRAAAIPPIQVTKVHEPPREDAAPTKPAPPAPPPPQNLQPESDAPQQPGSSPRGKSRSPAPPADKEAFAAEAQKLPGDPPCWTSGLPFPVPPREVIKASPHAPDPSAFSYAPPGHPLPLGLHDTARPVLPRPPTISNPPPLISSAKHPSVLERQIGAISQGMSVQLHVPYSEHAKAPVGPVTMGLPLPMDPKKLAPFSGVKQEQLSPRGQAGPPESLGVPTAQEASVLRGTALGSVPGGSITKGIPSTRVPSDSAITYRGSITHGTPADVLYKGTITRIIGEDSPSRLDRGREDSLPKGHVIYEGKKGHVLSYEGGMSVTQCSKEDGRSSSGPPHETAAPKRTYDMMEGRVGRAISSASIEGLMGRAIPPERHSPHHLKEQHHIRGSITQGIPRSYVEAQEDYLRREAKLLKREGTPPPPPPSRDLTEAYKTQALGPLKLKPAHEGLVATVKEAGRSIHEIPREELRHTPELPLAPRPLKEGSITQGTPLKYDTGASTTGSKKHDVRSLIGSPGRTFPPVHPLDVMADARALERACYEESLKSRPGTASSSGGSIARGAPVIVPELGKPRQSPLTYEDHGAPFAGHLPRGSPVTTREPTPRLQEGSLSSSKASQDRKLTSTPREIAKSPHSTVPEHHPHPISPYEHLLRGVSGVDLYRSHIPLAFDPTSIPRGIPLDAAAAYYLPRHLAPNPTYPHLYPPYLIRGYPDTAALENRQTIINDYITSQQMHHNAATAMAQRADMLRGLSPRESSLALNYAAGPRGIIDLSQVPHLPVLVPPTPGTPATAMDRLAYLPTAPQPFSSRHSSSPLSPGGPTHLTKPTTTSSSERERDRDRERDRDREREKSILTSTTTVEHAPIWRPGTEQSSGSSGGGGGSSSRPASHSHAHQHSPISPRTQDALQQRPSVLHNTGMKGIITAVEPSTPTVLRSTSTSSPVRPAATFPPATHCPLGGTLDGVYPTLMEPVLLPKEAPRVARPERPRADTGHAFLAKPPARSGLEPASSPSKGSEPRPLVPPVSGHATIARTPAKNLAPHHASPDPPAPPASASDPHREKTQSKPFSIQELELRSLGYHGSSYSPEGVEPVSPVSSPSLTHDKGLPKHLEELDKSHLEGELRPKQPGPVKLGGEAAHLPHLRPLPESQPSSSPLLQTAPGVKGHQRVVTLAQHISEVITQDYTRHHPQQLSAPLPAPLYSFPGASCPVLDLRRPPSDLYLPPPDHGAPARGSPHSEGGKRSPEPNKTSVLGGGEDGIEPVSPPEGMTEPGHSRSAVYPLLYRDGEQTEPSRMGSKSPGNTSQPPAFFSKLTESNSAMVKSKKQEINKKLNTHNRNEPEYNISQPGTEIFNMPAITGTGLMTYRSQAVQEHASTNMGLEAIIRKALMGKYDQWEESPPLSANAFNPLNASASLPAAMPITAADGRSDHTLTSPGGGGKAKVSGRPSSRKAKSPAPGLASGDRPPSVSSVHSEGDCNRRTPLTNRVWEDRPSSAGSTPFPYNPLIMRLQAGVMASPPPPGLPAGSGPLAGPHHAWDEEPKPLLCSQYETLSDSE

## CCCCNNC(=O)c1ccc(Br)cc1 [UF010]
  IC50: 0.06 µM
